SMILES strings stand for the structures. Where a name gives a salt, the structure may show the parent alone. Read-outs that look alike come from different tables or passages of the source.

These results are taken from USRE47689E1, “Compounds for treating spinal muscular atrophy” (PTC Therapeutics, Inc., priority 2011, dated 2019).

The subject of assay [1] is SMN2 minigene (full length SMN2 minigene mRNA containing SMN2 exon 7). Kind of assay: SMN2 minigene mRNA splicing RT-qPCR assay in cultured cells. The format is cell-based, human. The note with it: Homo sapiens, HEK293-H, read-out: EC1.5x for production of full length SMN2 mRNA. The protocol:
The reverse transcription-quantitative PCR-based (RT-qPCR) assay is used to quantify the level of the full length SMN2 minigene mRNA containing SMN2 exon 7 in a HEK293H cell line stably transfected with said minigene and treated with a test compound.
Protocol. HEK293H cells stably transfected with the SMN2-A minigene construct described above (10,000 cells/well) are seeded in 200 μL of cell culture medium (DMEM plus 10% FBS, with 200 μg/mL hygromycin) in 96-well flat-bottom plates and the plate is immediately swirled to ensure proper dispersal of cells, forming an even monolayer of cells. Cells are allowed to attach for at least 4-6 hours. […] A solution of test compound (1 μL, 200× in DMSO) is added to each cell-containing well and the plate is incubated for 24 hours in a cell culture incubator (37° C., 5% CO2, 100% relative humidity). 2 replicates are prepared for each test compound concentration. The cells are then lysed in Cells-To-Ct lysis buffer and the lysate is stored at −80° C.
The combination of these three oligonucleotides detects only SMN1 or SMN2 minigenes (RT-qPCR) and will not detect endogenous SMN1 or SMN2 genes.
The SMN forward and reverse primers are used at final concentrations of 0.4 μM.
The SMN2-minigene GAPDH mix (15 μL total volume) is prepared by combining 7.5 μL of 2×RT-PCR buffer, 0.4 μL of 25×RT-PCR enzyme mix, 0.75 μL of 20×GAPDH primer-probe mix, 4.0075 μL of water, 2 μL of 10-fold diluted cell lysate, 0.06 μL of 100 μM SMN forward primer, 0.06 μL of 100 μM SMN reverse primer, and 0.225 μL of 100 μM SMN probe.
PCR is carried out at the following temperatures for the indicated time: Step 1: 48° C. (15 min); Step 2: 95° C. (10 min); Step 3: 95° C. (15 sec); Step 4: 60° C. (1 min); then repeat Steps 3 and 4 for a total of 40 cycles.
Each reaction mixture contains both SMN2-A minigene and GAPDH primers/probe sets (multiplex design), allowing simultaneous measurement of the levels of two transcripts.
Two SMN spliced products are generated from the SMN2 minigene. The first spliced product containing exon 7, corresponding to full length SMN2 mRNA, is called SMN2mini FL. The second one lacking exon 7 is called SMN2mini Δ7.
The amplification efficiency E is calculated from the slope of the amplification curve for SMN2mini FL and GAPDH individually. The abundances of SMN2mini FL and GAPDH are then calculated as […], where Ct is the threshold value for each amplicon. The abundance of SMN2mini FL is normalized to GAPDH abundance. The normalized SMN2mini FL abundance from test compound-treated samples is then divided by normalized SMN2mini FL abundance from vehicle-treated cells to determine the level of SMN2 FL mRNA relative to vehicle control.
An EC1.5x for production of full length SMN2 mRNA between >3 μM and ≤30 μM is indicated by one star (*), an EC1.5x between >1 μM and ≤3 μM is indicated by two stars (**), an EC1.5x between >0.3 μM and ≤1 μM is indicated by three stars (***), an EC1.5x between >0.1 μM and ≤0.3 μM is indicated by four stars (****) and an EC1.5x≤0.1 μM is indicated by five stars (*****).

A further assay deals with Smn protein. Kind of assay: Smn protein assay in cultured cells (SMN HTRF). The note with it: for EC1.5x (concentration giving 1.5-fold Smn protein increase): SMA Type 1 patient fibroblast cells (GM03813), 7-point concentration curve, SMN HTRF, concentration producing 1.5 times Smn protein vs DMSO vehicle control, read-out: EC1.5x for Smn protein expression. The format is cell-based, human. The protocol:
The SMN HTRF (homogeneous time resolved fluorescence) assay is used to quantify the level of Smn protein in SMA patient fibroblast cells treated with test compounds.
Protocol. Cells are thawed and cultured in DMEM-10% FBS for 72 hours. Cells are trypsinized, counted and resuspended to a concentration of 25,000 cells/mL in DMEM-10% FBS. […] 1 μL of test compound solution is transferred to cell-containing wells and cells are incubated for 48 hours in a cell culture incubator (37° C., 5% CO2, 100% relative humidity). Triplicate samples are set up for each test compound concentration. After 48 hours, the supernatant is removed from the wells and 25 μL of the RIPA lysis buffer, containing protease inhibitors, is added to the wells and incubated with shaking at room temperature for 1 hour. 25 μL of the diluent is added and then 35 μL of the resulting lysate is transferred to a 384-well plate, where each well contains 5 μL of the antibody solution (1:100 dilution of anti-SMN d2 and anti-SMN kryptate in SMN reconstitution buffer). The plate is centrifuged for 1 minute to bring the solution to the bottom of the wells, then incubated overnight at room temperature. Fluorescence for each well of the plate at 665 nm and 620 nm is measured on an EnVision multilabel plate reader (Perkin-Elmer).
The normalized fluorescence signal is calculated for each sample, Blank and vehicle control well by dividing the signal at 665 nm by the signal at 620 nm. Normalizing the signal accounts for possible fluorescence quenching due to the matrix effect of the lysate. The ΔF value (a measurement of Smn protein abundance) for each sample well is calculated by subtracting the normalized average fluorescence for the Blank control wells from the normalized fluorescence for each sample well and then dividing this difference by the normalized average fluorescence for the Blank control wells. The resulting ΔF value for each sample well represents the Smn protein abundance from test compound-treated samples. The ΔF value for each sample well is divided by the ΔF value for the vehicle control wells to calculate the fold increase in Smn protein abundance relative to the vehicle control.
An EC1.5x for Smn protein expression between >3 μM and ≤10 μM is indicated by one star (*), an EC1.5x between >1 and ≤3 μM is indicated by two stars (**), an EC1.5x between >0.3 μM and ≤1 μM is indicated by three stars (***) and an EC1.5x≤0.3 μM is indicated by four stars (****).

The mark [2] stands for this setting: HEK293H cells stably transfected with SMN2-A minigene, 24 hours, 7-point concentration curve, 1.5-fold relative to vehicle-treated cells.
Setting [3] is: SMA patient fibroblast cells, 48 hours, 7-point concentration data, fold increase relative to vehicle control (SMN HTRF).

On to `Cc1cn2cc(-c3cc4ccc(O[C@@H]5CCNC5)cc4oc3=O)nc2c(C)n1` [Compound 601, 3-(6,8-dimethylimidazo[1,2-a]pyrazin-2-yl)-7-[(3R)-pyrrolidin-3-yloxy]-2H-chromen-2-one], for which, in assay [1] (setting [2]), the EC (1.5-fold) is under 0.1 µM. Besides, the EC1.5x (concentration giving 1.5-fold Smn protein increase) in the assay on Smn protein (48 hours) was under 300 nM. In addition, in the assay on Smn protein (setting [3]), the “maximum fold (Fold) increase of Smn protein” value (shortened to “maximum fold (Fold) increase”) is given as “***** (fold increase >1.65)”.

As to `C[C@@H]1CN(c2ccc3cc(-c4cc5ncccn5c4)c(=O)oc3c2)C[C@H](C)N1` [Compound 580, 7-[(3R,5S)-3,5-dimethylpiperazin-1-yl]-3-(pyrrolo[1,2-a]pyrimidin-7-yl)-2H-chromen-2-one], the EC (1.5-fold) in assay [1] (setting [2]) lay within 1 to 3 µM. In addition, the “maximum fold (Fold) increase” value in the assay with Smn protein (setting [3]) is “* (maximum fold increase of ≤1.2)”.

Regarding `Cc1nccn2cc(-c3cc4ccc(N5CCN[C@H](C)C5)cc4oc3=O)nc12` [Compound 559, 3-(8-methylimidazo[1,2-a]pyrazin-2-yl)-7-[(3R)-3-methylpiperazin-1-yl]-2H-chromen-2-one], the EC (1.5-fold) in assay [1] (setting [2]) was 0.3 to 1 µM. In addition, in the assay on Smn protein (setting [3]), the “maximum fold (Fold) increase” value was “*** (fold increase between >1.35 and ≤1.5)”.

Regarding `Cc1cn2cc(-c3cc4ccc(OCCN5CC[C@H](O)C5)cc4oc3=O)nc2c(C)n1` [Compound 954, 3-(6,8-dimethylimidazo[1,2-a]pyrazin-2-yl)-7-{2-[(3S)-3-hydroxypyrrolidin-1-yl]ethoxy}-2H-chromen-2-one], in assay [1] (setting [2]), the EC (1.5-fold) is under 0.1 µM. Further, the EC1.5x (concentration giving 1.5-fold Smn protein increase) with Smn protein (48 hours) was under 300 nM. Further, in the assay with Smn protein (setting [3]), the “maximum fold (Fold) increase” value is given as “***** (fold increase >1.65)”.

As to `O=c1oc2cc(N3CCNCC3)ccc2cc1-c1cc(C(F)(F)F)ccn1` [Compound 76, 7-(piperazin-1-yl)-3-[4-(trifluoromethyl)pyridin-2-yl]-2H-chromen-2-one], the EC (1.5-fold) in assay [1] (setting [2]) lay within 1 to 3 µM. Besides, in the assay on Smn protein (setting [3]), the “maximum fold (Fold) increase” value is reported as “* (maximum fold increase of ≤1.2)”.

Take `Cc1cn2cc(-c3cc4ccc(N5CC6(CNC6)C5)cc4oc3=O)cc(F)c2n1` [Compound 985, 7-(2,6-diazaspiro[3.3]hept-2-yl)-3-(8-fluoro-2-methylimidazo[1,2-a]pyridin-6-yl)-2H-chromen-2-one]: the EC (1.5-fold) in assay [1] (setting [2]) was under 0.1 µM. In addition, the EC1.5x (concentration giving 1.5-fold Smn protein increase) with Smn protein (48 hours) is under 300 nM. For the same compound, in the assay with Smn protein (setting [3]), the “maximum fold (Fold) increase” value was “***** (fold increase >1.65)”.

As to `Cc1ccn2cc(-c3cc4ccc(N5CCN(C)CC5)cc4oc3=O)nc2n1` [Compound 224, 3-(7-methylimidazo[1,2-a]pyrimidin-2-yl)-7-(4-methylpiperazin-1-yl)-2H-chromen-2-one], in assay [1] (setting [2]), the EC (1.5-fold) lay in the range of 0.3 to 1 µM. Moreover, the “maximum fold (Fold) increase” value in the assay on Smn protein (setting [3]) is “* (maximum fold increase of ≤1.2)”.

`O=c1oc2cc(OC3CCNC3)ccc2cc1-c1cn2cccnc2n1` (stereo in doubt) [Cpd 321, 3-(imidazo[1,2-a]pyrimidin-2-yl)-7-[(3R)-pyrrolidin-3-yloxy]-2H-chromen-2-one hydrochloride (1:2)]: the EC (1.5-fold) in assay [1] (24 h) was 1 to 3 µM. Also, the “maximum fold (Fold) increase” value in the assay on Smn protein was “** (key: *: maximum fold increase of ≤1.2; **: fold increase between >1.2 and ≤1.35; ***: fold increase between >1.35 and ≤1.5; ****: fold increase between >1.5 and ≤1.65; *****: fold increase >1.65)”.

In the case of `Cc1cc2cc(-c3cc4ccc(N5CCN(C6CC6)CC5)cc4oc3=O)oc2c(C)n1` [Compound 798, 7-(4-cyclopropylpiperazin-1-yl)-3-(5,7-dimethylfuro[2,3-c]pyridin-2-yl)-2H-chromen-2-one], the EC (1.5-fold) in assay [1] (setting [2]) was 0.1 to 0.3 µM. Also, the EC1.5x (concentration giving 1.5-fold Smn protein increase) with Smn protein (48 hours) fell in the range of 300 to 1000 nM. Also, the “maximum fold (Fold) increase” value with Smn protein (setting [3]) was “**** (fold increase between >1.5 and ≤1.65)”.

As to `Cc1cn2cc(-c3cc4ccc(N5CCN(C(C)C)[C@H](C)C5)cc4oc3=O)cc2c(C)n1` [Compound 813, 3-(1,3-dimethylpyrrolo[1,2-a]pyrazin-7-yl)-7-[(3R)-3-methyl-4-(propan-2-yl)piperazin-1-yl]-2H-chromen-2-one], the EC (1.5-fold) in assay [1] (setting [2]) is under 0.1 µM. For the same compound, the EC1.5x (concentration giving 1.5-fold Smn protein increase) in the assay with Smn protein (48 hours) is under 300 nM. Further, the “maximum fold (Fold) increase” value in the assay with Smn protein (setting [3]) was “**** (fold increase between >1.5 and ≤1.65)”.

Turning to `Cl.O=c1oc2cc(C3CCNCC3)ccc2cc1-c1nc2c(Cl)cccc2s1` [Cpd 18, 3-(4-chloro-1,3-benzothiazol-2-yl)-7-(piperidin-4-yl)-2H-chromen-2-one hydrochloride], the EC (1.5-fold) in assay [1] (setting [2]) lay in the range of 0.3 to 1 µM. The “maximum fold (Fold) increase” value with Smn protein (setting [3]) is “* (maximum fold increase of ≤1.2)”.

As to `O=c1oc2cc(N3CC4CC3CN4)ccc2cc1-c1nc2ccccc2o1` (stereo not shown) [Compound 85, 3-(1,3-benzoxazol-2-yl)-7-(2,5-diazabicyclo[2.2.1]hept-2-yl)-2H-chromen-2-one], the EC (1.5-fold) in assay [1] (setting [2]) lay within 3 to 30 µM. Besides, in the assay on Smn protein (setting [3]), the “maximum fold (Fold) increase” value is listed as “* (maximum fold increase of ≤1.2)”.

In the case of `C[C@H]1CN(c2ccc3cc(-c4ccc5nccn5c4)c(=O)oc3c2)CCN1` [Compound 981, 3-(imidazo[1,2-a]pyridin-6-yl)-7-[(3S)-3-methylpiperazin-1-yl]-2H-chromen-2-one], the EC (1.5-fold) in assay [1] (setting [2]) was 0.1 to 0.3 µM. In addition, the EC1.5x (concentration giving 1.5-fold Smn protein increase) in the assay with Smn protein (48 hours) was in the range of 1000 to 3000 nM. Also, the “maximum fold (Fold) increase” value with Smn protein (setting [3]) is “**** (fold increase between >1.5 and ≤1.65)”.

On to `Cc1cn2cc(-c3cc4ccc(N5CC6(CC(N)C6)C5)cc4oc3=O)nc2c(C)n1` [Compound 977, 7-(6-amino-2-azaspiro[3.3]hept-2-yl)-3-(6,8-dimethylimidazo[1,2-a]pyrazin-2-yl)-2H-chromen-2-one], for which, in assay [1] (setting [2]), the EC (1.5-fold) was in the range of 1 to 3 µM. Besides, the “maximum fold (Fold) increase” value in the assay with Smn protein (setting [3]) was “* (maximum fold increase of ≤1.2)”.
